Reference: publication PMC8584173, “The Cytotoxic Effect of Copper (II) Complexes with Halogenated 1,3-Disubstituted Arylthioureas on Cancer and Bacterial Cells” (International Journal of Molecular Sciences, 2021)

Tests used:
[1] = test system: SW620 (human metastatic colon cancer); assay: MTT cytotoxicity assay, SW620; type: cell-based; settings: SW620, 72 h
Protocol: (§1) The human primary (SW480), metastatic (SW620) colon cancer, metastatic prostate cancer (PC3) and human immortal keratinocyte (HaCaT) cell lines were purchased from the American Type Culture Collection (ATCC, Rockville, USA). The cells were cultured in medium according to protocols (MEM for SW480 and SW620, RPMI 1640 for PC3 and DMEM for HaCaT cells) supplemented with 10% fetal bovine serum (FBS), penicillin (100 U/mL) and streptomycin (100 μg/mL) and cultured in 37 °C/ 5% CO2 humidified incubator. The cells were cultured until appropriate confluence was achieved (80–90%). Next, they were harvested by treatment with 0.25% trypsin (Gibco Life Technologies, USA) and used for studies.
(§2) Cells without studied compounds in medium were used as a control.
(§3) The cell viability was assessed by determination of MTT salt (3-(4,5-dimethylthiazol-2-yl)-2,5-diphenyltetrazolium bromide) conversion by mitochondrial dehydrogenase. MTT assay was performed as previously described. Experiments were repeated three times. Cell viability was presented as a percentage of MTT reduction in the treated cells versus the control cells. Number of viable cells cultured without studied compounds was assumed to be 100%. Decreased relative MTT level means decreased cell viability.

[2] = test system: PC3 (human metastatic prostate cancer); assay: MTT cytotoxicity assay, PC3; type: cell-based; settings: for IC50: PC3, 72 h, MTT; for fold more active than cisplatin: PC3 cell lines
Protocol: as §1, §2
as §3, with “viability. Thiourea complexes with the highest cytotoxic potential assessed by MTT determination (with the lowest IC50) were chosen for subsequent assessments of cytotoxicity mechanisms.” for “viability.”

S. aureus ATCC 25923 = assay: MIC, twofold serial microdilution; type: cell-based, Staphylococcus aureus; settings: S. aureus ATCC 25923, 18 h, 35 °C
Protocol: (§4) The antimicrobial activity of the compounds was tested on Gram-positive bacteria (Staphylococcus aureus NCTC 4163, Staphylococcus aureus ATCC 25923, Staphylococcus aureus ATCC 6538, Staphylococcus aureus ATCC 29213, Staphylococcus epidermidis ATCC 12228, Staphylococcus epidermidis ATCC 35984), Gram-negative rods (Escherichia coli ATCC 10538, Escherichia coli ATCC 25922, Pseudomonas aeruginosa ATCC 15442, Pseudomonas aeruginosa ATCC 27863) and yeasts (Candida albicans ATCC 10231, Candida albicans ATCC 90028, Candida parapsilosis ATCC 22019). Hospital methicillin-resistant strains of Staphylococcus aureus and Staphylococcus epidermidis were obtained from the collection of the Department of Pharmaceutical Microbiology, Medical University of Warsaw, Poland.
(§5) Antifungal activities were assessed using Mueller–Hinton agar + 2% glucose and 0.5 µg/mL methylene blue dye medium. Sterile filter paper discs (9 mm diameter, Whatman Number 3 chromatography paper) were dripped with tested compound solutions (in dimethylsulfoxide, DMSO) to load 400 μg of a given compound per disc. Dry discs were placed on the surface of appropriate agar medium. The results (diameter of the growth inhibition zone) were read after 18 h of incubation at 35 °C. Minimal inhibitory concentration (MIC) was tested by the twofold serial microdilution method (in 96-well microtiter plates) using Mueller–Hinton broth medium (Beckton Dickinson) for bacteria or RPMI-1640 medium for Candida species, according to CLSI guidelines. The stock solution of tested agent was prepared in DMSO and diluted in sterile water. […] The final inoculum of all studied microorganisms was 10^5 CFU/ mL^−1 (colony forming units per ml). Minimal inhibitory concentrations (the lowest concentration of a tested agent that prevents visible growth of a microorganism) were read after 18 h (bacteria) or 24 h (yeasts) of incubation at 35 °C.

S. aureus ATCC 29213 = assay: MIC, twofold serial microdilution; type: cell-based, Staphylococcus aureus; settings: S. aureus ATCC 29213, 18 h, 35 °C
Protocol: as §4, §5

S. aureus ATCC 6538 = assay: MIC, twofold serial microdilution; type: cell-based, Staphylococcus aureus; settings: S. aureus ATCC 6538, 18 h, 35 °C
Protocol: as §4, §5

S. aureus NCTC 4163 = assay: MIC, twofold serial microdilution; type: cell-based, Staphylococcus aureus; settings: S. aureus NCTC 4163, 18 h, 35 °C
Protocol: as §4, §5

E. coli ATCC 25922 = assay: MIC, twofold serial microdilution; type: cell-based, Escherichia coli; settings: E. coli ATCC 25922, 18 h, 35 °C
Protocol: as §4, §5

E. coli NCTC 10538 = assay: MIC, twofold serial microdilution; type: cell-based, Escherichia coli; settings: E. coli NCTC 10538, 18 h, 35 °C
Protocol: as §4, §5

S. epidermidis 424 = assay: MIC, hospital MRSE strain; type: cell-based, Staphylococcus epidermidis; settings: hospital MRSE S. epidermidis 424
Protocol: as §4, §5

S. epidermidis 435 = assay: MIC, hospital MRSE strain; type: cell-based, Staphylococcus epidermidis; settings: hospital MRSE S. epidermidis 435
Protocol: as §4, §5

S. epidermidis 436 = assay: MIC, hospital MRSE strain; type: cell-based, Staphylococcus epidermidis; settings: hospital MRSE S. epidermidis 436
Protocol: as §4, §5

S. epidermidis 437 = assay: MIC, hospital MRSE strain; type: cell-based, Staphylococcus epidermidis; settings: hospital MRSE S. epidermidis 437
Protocol: as §4, §5

S. epidermidis 438 = assay: MIC, hospital MRSE strain; type: cell-based, Staphylococcus epidermidis; settings: hospital MRSE S. epidermidis 438
Protocol: as §4, §5

S. epidermidis 469 = assay: MIC, hospital MRSE strain; type: cell-based, Staphylococcus epidermidis; settings: hospital MRSE S. epidermidis 469
Protocol: as §4, §5

S. epidermidis 471 = assay: MIC, hospital MRSE strain; type: cell-based, Staphylococcus epidermidis; settings: hospital MRSE S. epidermidis 471
Protocol: as §4, §5

[3] = test system: Bacillus subtilis M45 (rec−); assay: Bacillus subtilis rec-assay, M45; type: cell-based; settings: B. subtilis M45; 256 µg per disc (NOQ 2 µg per disc)
Protocol: DNA-damaging activity of compounds was tested by rec-assay using two genetically modified Bacillus subtilis strains: M45 (rec^−) and H17 (rec^+). Tested compounds were dissolved in DMSO, and 10 µL of each solution was dripped onto sterile cotton discs (Rotilabo) to load 256 µg of a given compound per 9 mm disc. Discs were placed on the surface nutrient agar plates (Difco), inoculated with 100 µL of bacterial overnight culture and incubated […] at 35 °C. After incubation, the growth inhibition zones were measured. […] Results of the genotoxicity test were estimated after 18 h of incubation at 35 °C by comparing the diameter of the inhibition zone on the B. subtilis M45 (rec^−) strain with that on the B. subtilis H17 (rec^+) strain.

Row | SMILES | IC50 [1] | IC50 [2] | fold more active than cisplatin [2] | MIC (S. aureus ATCC 25923) | MIC (S. aureus ATCC 29213) | MIC (S. aureus ATCC 6538) | MIC (S. aureus NCTC 4163) | MIC (E. coli ATCC 25922) | MIC (E. coli NCTC 10538) | MIC (S. epidermidis 424) | MIC (S. epidermidis 435) | MIC (S. epidermidis 436) | MIC (S. epidermidis 437) | MIC (S. epidermidis 438) | MIC (S. epidermidis 469) | MIC (S. epidermidis 471) | inhibition zone diameter [3]
1 | O=[N+]([O-])c1cc([N+]2=C(Nc3ccccc3Br)[S][Cu-2]23[S]C(Nc2ccccc2Br)=[N+]3c2ccc(Cl)c([N+](=O)[O-])c2)ccc1Cl [Compound 1, Copper (II) complex with 1-(2-bromophenyl)-3-(4-chloro-3-nitrophenyl)thiourea] | 3.3 ± 0.2 µM | 9.7 ± 0.1 µM | 1.2–3.1 fold | 8 µg/mL | 8 µg/mL | 8 µg/mL | 8 µg/mL | 256 µg/mL | 128 µg/mL | 8 µg/mL | 8 µg/mL | 8 µg/mL | 8 µg/mL | 8 µg/mL | 8 µg/mL | 8 µg/mL | 12 mm
2 | O=[N+]([O-])c1cc([N+]2=C(Nc3cccc(Br)c3)[S][Cu-2]23[S]C(Nc2cccc(Br)c2)=[N+]3c2ccc(Cl)c([N+](=O)[O-])c2)ccc1Cl [Compound 2, Copper (II) complex with 1-(3-bromophenyl)-3-(4-chloro-3-nitrophenyl)thiourea] | 22.3 ± 1.8 µM | 19.2 ± 2.2 µM | – | 16 µg/mL | 16 µg/mL | 16 µg/mL | 16 µg/mL | 128 µg/mL | 128 µg/mL | 8 µg/mL | 8 µg/mL | 8 µg/mL | 8 µg/mL | 8 µg/mL | 8 µg/mL | 8 µg/mL | 19 mm
3 | O=[N+]([O-])c1cc([N+]2=C(Nc3ccc(Br)cc3)[S][Cu-2]23[S]C(Nc2ccc(Br)cc2)=[N+]3c2ccc(Cl)c([N+](=O)[O-])c2)ccc1Cl [Compound 3, Copper (II) complex with 1-(4-bromophenyl)-3-(4-chloro-3-nitrophenyl)thiourea] | 19.2 ± 2.3 µM | 8.8 ± 0.8 µM | 1.2–3.1 fold | 8 µg/mL | 16 µg/mL | 8 µg/mL | 8 µg/mL | >256 µg/mL | 128 µg/mL | 4 µg/mL | 4 µg/mL | 4 µg/mL | 8 µg/mL | 4 µg/mL | 4 µg/mL | 8 µg/mL | 15 mm
4 | O=[N+]([O-])c1cc([N+]2=C(Nc3ccc(F)c(Cl)c3)[S][Cu-2]23[S]C(Nc2ccc(F)c(Cl)c2)=[N+]3c2ccc(Cl)c([N+](=O)[O-])c2)ccc1Cl [Compound 4, Copper (II) complex with 1-(3-chloro-4-fluorophenyl)-3-(4-chloro-3-nitrophenyl)thiourea] | 21.6 ± 2.9 µM | 23.2 ± 1.6 µM | – | 4 µg/mL | 4 µg/mL | 4 µg/mL | 4 µg/mL | 128 µg/mL | 128 µg/mL | 8 µg/mL | 8 µg/mL | 8 µg/mL | 8 µg/mL | 8 µg/mL | 4 µg/mL | 8 µg/mL | 18 mm
5 | O=[N+]([O-])c1cc([N+]2=C(Nc3ccc(Cl)c(Cl)c3)[S][Cu-2]23[S]C(Nc2ccc(Cl)c(Cl)c2)=[N+]3c2ccc(Cl)c([N+](=O)[O-])c2)ccc1Cl [Compound 5, Copper (II) complex with 1-(4-chloro-3-nitrophenyl)-3-(3,4-dichlorophenyl)thiourea] | 10.8 ± 2.6 µM | 11.4 ± 2.4 µM | 1.2–3.1 fold | 32 µg/mL | 32 µg/mL | 32 µg/mL | 32 µg/mL | 128 µg/mL | 128 µg/mL | 32 µg/mL | 32 µg/mL | 32 µg/mL | 32 µg/mL | 32 µg/mL | 32 µg/mL | 32 µg/mL | 18 mm
6 | O=[N+]([O-])c1cc(NC2=[N+](c3ccc(Cl)c([N+](=O)[O-])c3)[Cu-2]3([S]2)[S]C(Nc2ccc(Cl)c([N+](=O)[O-])c2)=[N+]3c2ccc(Cl)c([N+](=O)[O-])c2)ccc1Cl [Compound 6, Copper (II) complex with 1,3-bis(4-chloro-3-nitrophenyl)thiourea] | 21.5 ± 1.4 µM | 20.3 ± 3.1 µM | – | 8 µg/mL | 8 µg/mL | 8 µg/mL | 8 µg/mL | 128 µg/mL | 128 µg/mL | 64 µg/mL | 128 µg/mL | 128 µg/mL | 128 µg/mL | 128 µg/mL | 64 µg/mL | 64 µg/mL | 15 mm
7 | O=[N+]([O-])c1cc([N+]2=C(Nc3ccccc3F)[S][Cu-2]23[S]C(Nc2ccccc2F)=[N+]3c2ccc(Cl)c([N+](=O)[O-])c2)ccc1Cl [Compound 7, Copper (II) complex with 1-(2-fluorophenyl)-3-(4-chloro-3-nitrophenyl)thiourea] | 9.1 ± 0.8 µM | 10.8 ± 1.3 µM | 1.2–3.1 fold | 32 µg/mL | 32 µg/mL | 32 µg/mL | 32 µg/mL | 256 µg/mL | 128 µg/mL | 8 µg/mL | 8 µg/mL | 8 µg/mL | 8 µg/mL | 8 µg/mL | 8 µg/mL | 8 µg/mL | 18 mm
